One test concerns the target T1, T790M/L858R Ba/F3 cells (Homo sapiens, UniProt P00533, T790M/L858R, cells depend on it).
T1 construct: The constructs were shuttled into the retroviral vector JP1540 using the BD Creator® System (BD Biosciences)
Kind of test: Ba/F3 cell proliferation (MTS assay). In kind it is cell-based, murine. The following applies: antiproliferative activity. On the procedure:
The EGFR mutant L858R, Del E746_A750, L858R/T790M, DelE746_A750/T790M, L858R/T790M/C797S and Del/T790M/C797S Ba/F3 cells were previously described (Zhou et al., Nature 462, (2009), 1070-1074). All cell lines were maintained in RPMI 1640 (Cellgro; Mediatech Inc., Herndon, CA) supplemented with 10% FBS 100 units/mL penicillin, 100 units/mL streptomycin, and 2 mM glutamine. L858R cells were maintained in ACL-4 media (Invitrogen, Carlsbad, CA) supplemented with 5% FBS, 100 units/mL penicillin, 100 units/mL streptomycin, and 2 mM glutamine. The EGFR 1941R mutation was introduced via site directed mutagenesis using the Quick Change Site-Directed Mutagenesis kit (Stratagene; La Jolla, CA) according to the manufacturer's instructions. All constructs were confirmed by DNA sequencing. The constructs were shuttled into the retroviral vector JP1540 using the BD Creator® System (BD Biosciences). Ba/F3 cells were infected with retrovirus and according to standard protocols, as described previously (Zhou 2009). Stable clones were obtained by selection in puromycin (2 μg/ml).
Growth and inhibition of growth was assessed by MTS assay and was performed according to previously established methods (Zhou 2009). The MTS assay is a colorimetric method for determining the number of viable cells that is based on the bioreduction of MTS by cells to a formazan product that is soluble in cell culture medium and can be detected spectrophotometrically. Ba/F3 cells of different EGFR genotypes were exposed to treatment and the number of cells used per experiment determined empirically and has been previously established (Zhou 2009). All experimental points were set up in six wells and all experiments were repeated at least three times. […] The curves were fitted using a non-linear regression model with a sigmoidal dose response.

Test [1] concerns the target T2, recombinant EGFR 790M/L858R kinase (Homo sapiens, UniProt P00533, L858R/T790M).
T2 construct: Constructs spanning residues 696-1022 of the human EGFR; GST (cleaved yes); made in house; host or cells: Sf9 insect cells
Kind of test: HTRF-based EGFR biochemical assay. The procedure:
EGFR biochemical assays are carried out using a homogeneous time-resolved fluorescence (HTRF) assay. The reaction mixtures contain biotin-Lck-peptide substrate, wild type, or mutant EGFR enzyme in reaction buffer. Enzyme concentrations are adjusted to accommodate varying kinase activity and ATP concentrations. Compounds of the present application are diluted into the assay mixture and IC50 values are determined using 12-point inhibition curves.
Constructs spanning residues 696-1022 of the human EGFR (including wild type and L858R, L858R/T790M, T790M, and T790M/V948R mutant sequences) were prepared in a GST-fusion format using the pTriEX system (Novagen) for expression in Sf9 insect cells essentially as described (Yun et al., PNAS 105, 2070-2075 (2008): Yun et al., Cancer Cell 11, 217-227 (2007)). EGFR kinase proteins were purified by glutathione-affinity chromatography followed by size-exclusion chromatography after cleavage with TEV or thrombin to remove the GST fusion partner following established procedures. (Yun 2008; Yun 2007).
EGFR biochemical assays were carried out using a homogeneous time-resolved fluorescence (HTRF) assay as described previously. The reaction mixtures contained 1 μM biotin-Lck-peptide substrate, wild type or mutant EGFR enzyme in reaction buffer (50 mM HEPES pH 7.1, 10 mM MgCl2, 0.01% BSA, 1 mM TCEP and 0.1 mM […]) at a final volume of 10 μL. Enzyme concentrations were adjusted to accommodate varying kinase activity and ATP concentrations (0.2-0.4 nM L858R/T790M; or 2-4 nM L858R, or 2-4 nM T790M, or 40 nM WT). All reactions were carried out at room temperature in white ProxiPlate™ 384-well Plus plates (PerkinElmer) and were quenched with 5 μL of 0.2 M EDTA at 60 min. Five μL per well of the detection reagent containing 2.5 ng PT66K (Cis-bio) and 0.05 μg SAXL (Prozyme) were added, and the plates were then incubated at room temperature for 1 hour and read with an EnVision plate reader. For IC50 determinations, compounds of the present application were diluted into assay mixture (final DMSO 0.5%), and IC50 values were determined by 12-point inhibition curves (from 50 to 0.000282 μM) in duplicate under the assay conditions as described above.
For orientation: Time-resolved FRET reads energy transfer from a long-lived donor to a nearby acceptor.

The mark [2] stands for this setting: absence of cetuximab, read-out: Ba/F3 cellular activity (EC50) T790M/L858R.
[3] abbreviates: read-out: Ba/F3 cellular activity (EC50) T790M/L858R + Cetuximab, presence of 1 μg/mL cetuximab.

The structures appear in SMILES notation. Where two headings read alike, the source gives them in different places.

T2 sequence (P00533 696-1022 T790M/L858R): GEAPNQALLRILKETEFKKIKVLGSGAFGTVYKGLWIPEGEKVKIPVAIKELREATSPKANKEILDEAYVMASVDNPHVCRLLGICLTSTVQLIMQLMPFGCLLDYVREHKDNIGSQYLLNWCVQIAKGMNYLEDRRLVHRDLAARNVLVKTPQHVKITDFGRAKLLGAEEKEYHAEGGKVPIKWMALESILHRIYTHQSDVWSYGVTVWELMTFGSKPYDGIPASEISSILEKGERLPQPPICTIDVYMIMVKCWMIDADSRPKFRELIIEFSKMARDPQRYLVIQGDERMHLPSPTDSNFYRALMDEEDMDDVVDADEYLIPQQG
T1 sequence (P00533 whole entry T790M/L858R): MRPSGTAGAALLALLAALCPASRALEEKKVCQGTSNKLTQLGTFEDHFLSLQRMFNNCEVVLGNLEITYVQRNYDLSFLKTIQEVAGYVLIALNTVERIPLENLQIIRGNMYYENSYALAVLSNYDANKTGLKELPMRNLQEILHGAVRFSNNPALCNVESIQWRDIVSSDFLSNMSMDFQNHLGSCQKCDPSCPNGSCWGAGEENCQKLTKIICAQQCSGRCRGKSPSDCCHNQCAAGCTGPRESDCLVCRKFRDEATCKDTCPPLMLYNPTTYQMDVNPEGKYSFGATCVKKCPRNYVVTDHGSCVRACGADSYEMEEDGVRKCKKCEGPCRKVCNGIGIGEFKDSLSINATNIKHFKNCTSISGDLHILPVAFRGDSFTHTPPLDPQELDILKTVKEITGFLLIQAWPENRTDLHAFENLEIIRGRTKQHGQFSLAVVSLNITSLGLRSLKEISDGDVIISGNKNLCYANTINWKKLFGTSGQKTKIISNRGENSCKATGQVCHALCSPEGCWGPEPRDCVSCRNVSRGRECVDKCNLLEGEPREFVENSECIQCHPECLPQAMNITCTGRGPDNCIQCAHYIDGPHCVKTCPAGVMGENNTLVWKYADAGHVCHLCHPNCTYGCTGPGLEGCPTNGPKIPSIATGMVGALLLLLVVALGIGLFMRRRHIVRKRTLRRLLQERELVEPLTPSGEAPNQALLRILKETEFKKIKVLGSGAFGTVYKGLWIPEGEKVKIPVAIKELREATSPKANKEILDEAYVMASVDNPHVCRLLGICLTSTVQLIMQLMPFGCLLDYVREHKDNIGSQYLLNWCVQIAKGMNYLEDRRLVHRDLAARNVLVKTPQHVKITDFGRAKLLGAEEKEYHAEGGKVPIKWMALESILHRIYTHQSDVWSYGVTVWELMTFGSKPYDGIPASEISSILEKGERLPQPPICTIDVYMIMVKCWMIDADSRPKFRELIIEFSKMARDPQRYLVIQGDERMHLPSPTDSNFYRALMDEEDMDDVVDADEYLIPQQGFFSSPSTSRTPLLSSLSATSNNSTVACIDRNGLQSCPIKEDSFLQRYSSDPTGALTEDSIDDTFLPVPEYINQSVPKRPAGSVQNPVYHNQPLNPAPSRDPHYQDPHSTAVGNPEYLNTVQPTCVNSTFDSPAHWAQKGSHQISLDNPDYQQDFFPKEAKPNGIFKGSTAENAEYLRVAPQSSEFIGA

One may read the IC50 as the point on the concentration scale where inhibition reaches its midpoint. For `CN1CCN(c2ccc(-c3ccc4c(c3)C(=O)N([C@H]3CNc5ccc(F)cc5N(Cc5ccccc5)C3=O)C4)cc2)CC1` [Compound I-11, (S)-1-benzyl-8-fluoro-3-(6-(4-(4-methylpiperazin-1-yl)phenyl)-1-oxoisoindolin-2-yl)-1,3,4,5-tetrahydro-2H-benzo[b][1,4]diazepin-2-one], the figures for the EC50 on T790M/L858R Ba/F3 cells (setting [2]) and on T790M/L858R Ba/F3 cells (setting [3]) were above 750 nM and below 250 nM, respectively. Further, the IC50 in test [1] is below 250 nM.
As for `COc1cc(N2CCOCC2)ccc1C(=O)N[C@H]1CNc2ccc(F)cc2N(Cc2ccccc2)C1=O` [Compound I-5, (S)-N-(1-benzyl-8-fluoro-2-oxo-2,3,4,5-tetrahydro-1H-benzo[b][1,4]diazepin-3-yl)-2-methoxy-4-morpholinobenzamide], the EC50 on T790M/L858R Ba/F3 cells (setting [2]) and at T790M/L858R Ba/F3 cells (setting [3]) was above 750 nM throughout. Further, the half-maximal inhibitory concentration (IC50) in test [1] was above 750 nM.
Turning to `COc1ccc(C2=CCNCC2)cc1C(=O)N[C@H]1CNc2ccc(F)cc2N(Cc2ccccc2)C1=O` [Compound I-7, (S)-N-(1-benzyl-8-fluoro-2-oxo-2,3,4,5-tetrahydro-1H-benzo[b][1,4]diazepin-3-yl)-2-methoxy-5-(1,2,3,6-tetrahydropyridin-4-yl)benzamide], the EC50 on T790M/L858R Ba/F3 cells (setting [2]) and on T790M/L858R Ba/F3 cells (setting [3]) was above 750 nM in each case. The concentration for half-maximal inhibition (IC50) in test [1] was above 750 nM.
Regarding `CN1CCN(c2ccc(-c3ccc4c(c3)CN([C@H]3CNc5ccc(F)cc5N(Cc5ccccc5)C3=O)C4=O)cc2)CC1` [Compound I-14, (S)-1-benzyl-8-fluoro-3-(5-(4-(4-methylpiperazin-1-yl)phenyl)-1-oxoisoindolin-2-yl)-1,3,4,5-tetrahydro-2H-benzo[b][1,4]diazepin-2-one], the EC50 at T790M/L858R Ba/F3 cells (setting [2]) is above 750 nM; on T790M/L858R Ba/F3 cells (setting [3]), below 250 nM. Moreover, the IC50 in test [1] was below 250 nM.
In the case of `CN1CCN(c2ccc(NC(=O)N[C@H]3CNc4ccc(F)cc4N(Cc4ccccc4)C3=O)cc2)CC1` [Compound I-2, (S)-1-(1-benzyl-8-fluoro-2-oxo-2,3,4,5-tetrahydro-1H-benzo[b][1,4]diazepin-3-yl)-3-(4-(4-methylpiperazin-1-yl)phenyl)urea], the EC50 on T790M/L858R Ba/F3 cells (setting [2]) and on T790M/L858R Ba/F3 cells (setting [3]) was above 750 nM throughout. The IC50 in test [1] is above 750 nM.
Consider `CN1CCN(c2ccc3c(c2)C(=O)N([C@H]2CNc4ccc(F)cc4N(Cc4ccccc4)C2=O)C3)CC1` [Compound I-13, (S)-1-benzyl-8-fluoro-3-(6-(4-methylpiperazin-1-yl)-1-oxoisoindolin-2-yl)-1,3,4,5-tetrahydro-2H-benzo[b][1,4]diazepin-2-one], for which the EC50 on T790M/L858R Ba/F3 cells (setting [2]) and at T790M/L858R Ba/F3 cells (setting [3]) was above 750 nM in each case. Besides, in test [1], the 50% inhibitory concentration (IC50) is above 750 nM.
Regarding `O=C(Cc1ccc(-n2cnnn2)cc1)N[C@H]1CNc2ccc(F)cc2N(Cc2ccccc2)C1=O` [Compound I-9, (S)-2-(4-(1H-tetrazol-1-yl)phenyl)-N-(1-benzyl-8-fluoro-2-oxo-2,3,4,5-tetrahydro-1H-benzo[b][1,4]diazepin-3-yl)acetamide], the EC50 on T790M/L858R Ba/F3 cells (setting [2]) and at T790M/L858R Ba/F3 cells (setting [3]) was above 750 nM in each case. The IC50 in test [1] is above 750 nM.
As for `O=C(N[C@H]1CNc2ccc(F)cc2N(Cc2ccccc2)C1=O)c1ccc(N2CCOCC2)cn1` [Compound I-8, (S)-N-(1-Benzyl-8-fluoro-2-oxo-2,3,4,5-tetrahydro-1H-benzo[b][1,4]diazepin-3-yl)-5-morpholinopicolinamide], the EC50 at T790M/L858R Ba/F3 cells (setting [2]) and on T790M/L858R Ba/F3 cells (setting [3]) was above 750 nM in each case. For the same molecule, the IC50 in test [1] is above 750 nM.
In the case of `O=C1[C@@H](N2Cc3ccc(F)cc3C2=O)CNc2ccc(F)cc2N1Cc1ccccc1` [Compound I-10, (S)-1-benzyl-8-fluoro-3-(6-fluoro-1-oxoisoindolin-2-yl)-1,3,4,5-tetrahydro-2H-benzo[b][1,4]diazepin-2-one], the EC50 at T790M/L858R Ba/F3 cells (setting [2]) was above 750 nM; at T790M/L858R Ba/F3 cells (setting [3]) it was below 250 nM. In test [1], the half-maximal inhibitory concentration (IC50) was below 250 nM.
For the molecule `CN1CCN(c2ccc(C(=O)N[C@H]3CNc4ccc(F)cc4N(Cc4ccccc4)C3=O)cc2)CC1` [Compound I-1, (S)-N-(1-benzyl-8-fluoro-2-oxo-2,3,4,5-tetrahydro-1H-benzo[b][1,4]diazepin-3-yl)-4-(4-methylpiperazin-1-yl)benzamide], the EC50 on T790M/L858R Ba/F3 cells (setting [2]) and at T790M/L858R Ba/F3 cells (setting [3]) was above 750 nM in each case. Also, the IC50 in test [1] is above 750 nM.
In the case of `CN1CCN(c2ccnc(C(=O)N[C@H]3CNc4ccc(F)cc4N(Cc4ccccc4)C3=O)c2)CC1` [Compound I-6, (S)-N-(1-benzyl-8-fluoro-2-oxo-2,3,4,5-tetrahydro-1H-benzo[b][1,4]diazepin-3-yl)-4-(4-methylpiperazin-1-yl)picolinamide], the EC50 on T790M/L858R Ba/F3 cells (setting [2]) and on T790M/L858R Ba/F3 cells (setting [3]) was above 750 nM each time. The IC50 in test [1] is above 750 nM.
Turning to `CN1CCN(c2cccc(C(=O)N[C@H]3CNc4ccc(F)cc4N(Cc4ccccc4)C3=O)c2)CC1` [Compound I-4, (S)-N-(1-benzyl-8-fluoro-2-oxo-2,3,4,5-tetrahydro-1H-benzo[b][1,4]diazepin-3-yl)-3-(4-methylpiperazin-1-yl)benzamide], the EC50 at T790M/L858R Ba/F3 cells (setting [2]) and on T790M/L858R Ba/F3 cells (setting [3]) was above 750 nM in each case. The IC50 in test [1] is above 750 nM.
As to `O=C(Cc1ccc(N2CCOCC2)cc1)N[C@H]1CNc2ccc(F)cc2N(Cc2ccccc2)C1=O` [Compound I-3, (S)-N-(1-benzyl-8-fluoro-2-oxo-2,3,4,5-tetrahydro-1H-benzo[b][1,4]diazepin-3-yl)-2-(4-morpholinophenyl)acetamide], the EC50 on T790M/L858R Ba/F3 cells (setting [2]) and at T790M/L858R Ba/F3 cells (setting [3]) was above 750 nM each time. Also, the concentration for half-maximal inhibition (IC50) in test [1] was above 750 nM.
